Results as given in patent US12049455B2, “Compositions and methods for the prevention and/or treatment of mitochondrial disease, including Friedreich's ataxia” (Stealth BioTherapeutics Inc., priority 2019, dated 2024).

Tests used:
[1] = test system: Nrf-2; assay: Nrf-2 Activation Assay (Nrf-2 Assay); format: cell-based, human; details: 1 μM compound, 24 hours
Description: This assay was developed internally and was designed to determine if the novel test compounds disclosed herein active Nrf-2 and thereby promote resolution of inflammation by the mechanism believed to be responsible for the activity of omaveloxolone.
Briefly, GM03665 Friedreich Ataxia patient fibroblasts were grown in 12 Well Plates (TC Cell+F) (Sarstedt, Numbrecht Germany), at a density of […] in DMEM/F12 (Gibco, ThermoFisher Scientific, Waltham, MA, USA) cell media supplemented with 10% FBS and 1% Pen/Strep. Cells were left to rest overnight at 37° C. in a humidified atmosphere with 5% CO2 to allow attachment of the cells to the culture plate. Before continuing assay visual inspection of each well was done by light microscopy to detect any possible bacterial and fungal contamination. […] After incubation, cell media was removed and total RNA from the cells was isolated using E.Z.N.A.® Total RNA Kit I (Omega Bio-tek, Norcross, Georgia, USA) spin columns, and first-strand cDNA synthesis was carried out using a High Capacity cDNA Reverse Transcription Kit (Applied Biosystems™, Foster City, CA) following the manufacturer's instructions. qPCR analysis of gene expression was performed by mixing SYBR® Green Master Mix (Applied Biosystems™) with synthesized cDNA and forward and reverse primers. […] (60 cycles), and 95° C. for 60 seconds, followed by melt curve analysis at 72-95° C., 0.3° C./sec. The relative expression levels for each gene were calculated with the ΔΔCt method and normalized to the expression of REEP5 and SNRPD3 genes.

[2] = test system: HepG2 cells; assay: Rotenone Oxygraph Assay (high-resolution respirometry of intact HepG2 cells); format: cell-based, human; details: for active in Complex I by-pass (in words): summary of Table 7 (Rotenone ATP and Rotenone Oxygraph assays)
Description: The Oxygraph-2 k (O2k, OROBOROS INSTRUMENTS, Austria) was used for measurements of respiration of intact cells. The respirometry was performed in Dulbecco's Modified Eagle Medium (DMEM) high glucose without supplements. All experiments were performed at 37° C.
HepG2 cells (ATCC collection code HB-8065™) were cultured in 10 cm^2 culture dishes in DMEM high glucose medium supplemented with 10% fetal bovine serum (FBS) and 100 units/mL penicillin and 100 μg/mL streptomycin until approximately 90% confluence was reached. Immediately prior to performing the respirometric assay, the cells were washed with media without FBS, trypsinized and resuspended in DMEM high glucose without FBS.
The final concentration of intact cells in the O2k-chamber was 0.5·10^6/mL. After stabilization of respiration, the Complex I inhibitor, rotenone, at 1 μM final concentration was added to inhibit electron flux via Complex I. Then, compound to be tested was added at 10 μM final concentration, and the change in respiration rate of intact cells was monitored.

[3] = test system: GM03665 cells; assay: RSL3 Toxicity Assay (RSL3 Assay); format: cell-based, human; details: protection of Friedreich's ataxia fibroblasts from RSL3
Description: In brief, GM03665 cells (Coriell Institute) were seeded in 96-well plates (Sarstedt) in DMEM cell culture media containing 10% Fetal Bovine serum and 1% Penicillin-Streptomycin (Pen-Strep) antibiotic mix at the amount of 2×10^4/mL (100 μL or 2×10^3 cells per well). Cells were left to rest overnight at 37° C. in a humidified atmosphere with 5% CO2 to allow attachment of the cells to the culture plate. Test compounds were prepared as DMSO stocks (10 mM) and were serially diluted in cell culture media to obtain 2× working solutions. Cell media was discarded and replaced by 50 μL of test compound solutions or cell media with vehicle for control wells. Within 15 minutes, 2× working solution (4 μM) of 1S,3R-RSL3 (CAS #1219810-16-8, Sigma-Aldrich) (diluted from 5 mM DMSO stock in cell culture media) was added. Final reaction volume was 100 μL and final DMSO concentration in reaction was kept below 0.2% (v/v) and equal in all wells. Final RSL3 concentration was 2 μM and test compound final concentrations in reaction were up to 1000 nM. After 24 hours of incubation cell viability was assessed by MTT test. MTT (Sigma-Aldrich) solution 1 mg/mL in 1×PBS (pH=7,4) was prepared 1 hour before the assay and filtered through Filtropur S 0.2 filters (Sarstedt). […] Absorption at 570 and 650 nm was measured using Hidex Sense microplate reader.

[4] = test system: frataxin deficient fibroblasts (GM03665); format: cell-based; details: summary of Table 7

| Compound | activation of Nrf-2 responsive genes (in words, FIG. 7) [1] | active in Complex I by-pass (in words) [2] | activity in the RSL3 Assay (in words) [3] | activity in the BSO assay (in words) [4] | Rotenone Oxygraph Assay % Increase (Table 7) ([2]; intact HepG2 cells, rotenone 1 μM, compound 10 μM) | Percent increase in ATP (Rotenone Oxygraph Assay, Table 4) ([2]; intact HepG2 cells, rotenone 1 μM, compound 10 μM, change in respiration rate) | Nrf-2 Assay (Table 7) ([1]; GM03665 fibroblasts, qPCR of Nrf-2 responsive genes) |
| --- | --- | --- | --- | --- | --- | --- | --- |
| CC1=C(C)C(=O)C(CC[C@](C)(O)CC/C=C(\C)CC/C=C(\C)CCC=C2COC2)=C(C)C1=O [Compound E, 2-((R,6E,10E)-3-hydroxy-3,7,11-trimethyl-14-(oxetan-3-ylidene)tetradeca-6,10-dien-1-yl)-3,5,6-trimethylcyclohexa-2,5-diene-1,4-dione] | do not activate | – | – | – | – | – | – |
| CC1(C)CC[C@]2(NC(=O)C(C)(F)F)CC[C@]3(C)[C@H](C(=O)C=C4[C@@]5(C)C=C(C#N)C(=O)C(C)(C)[C@@H]5CC[C@]43C)[C@@H]2C1 [Omaveloxolone, reference compound] | positive | are not | completely inactive | – | – | – | – |
| COC1=C(OC)C(=O)C(CCCCCCCCCCO)=C(C)C1=O [Idebenone, reference compound] | – | – | – | very weakly active/borderline inactive | – | – | – |
| (R)-2-(3-hydroxy-3-methyl-4-(3-(trimethylsilyl)propoxy)butyl)-3,5,6-trimethylcyclohexa-2,5-diene-1,4-dione [Compound M] | do not activate | active | active | active | 56.6 +/− 11.3% | 56.6 +/− 11.3% | Inactive |
